Measurements from article PMC12605127, “Cyclopropane xenolipids resemble monounsaturated fatty acids and modulate peroxisome proliferator-activated receptors” (Journal of Lipid Research, 2025).
Like-named read-outs stand apart in the source and are kept apart here.

Tests used:
[1] = biological target: T1, human PPARα (Homo sapiens, UniProt Q07869); assay: LanthaScreen TR-FRET coactivator recruitment assay, PPARα LBD (PGC1α peptide); assay type: biochemical; conditions: for Emax: read-out: Emax, maximum efficacy, PPARα; for EC50: TR-FRET coactivator recruitment, human PPARα LBD, read-out: EC50, half maximal effective concentration, PPARα
T1 construct: purchased ThermoFisher Scientific PV4684
T1 sequence (Q07869 239-466 limits assumed): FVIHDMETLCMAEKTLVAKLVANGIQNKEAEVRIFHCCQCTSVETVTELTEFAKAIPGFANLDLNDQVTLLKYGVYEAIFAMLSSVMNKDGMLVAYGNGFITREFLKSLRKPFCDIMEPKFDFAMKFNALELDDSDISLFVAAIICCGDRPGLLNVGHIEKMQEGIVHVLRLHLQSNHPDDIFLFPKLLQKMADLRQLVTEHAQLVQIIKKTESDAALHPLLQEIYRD

[2] = biological target: T2, human PPARδ (Homo sapiens, UniProt Q03181); assay: LanthaScreen TR-FRET coactivator recruitment assay, PPARδ LBD (C33 peptide); assay type: biochemical; conditions: for Emax: read-out: Emax, maximum efficacy, PPARδ; for EC50: TR-FRET coactivator recruitment, human PPARδ LBD, read-out: EC50, half maximal effective concentration, PPARδ
T2 construct: purchased ThermoFisher Scientific PV4685
T2 sequence (Q03181 211-439 limits assumed): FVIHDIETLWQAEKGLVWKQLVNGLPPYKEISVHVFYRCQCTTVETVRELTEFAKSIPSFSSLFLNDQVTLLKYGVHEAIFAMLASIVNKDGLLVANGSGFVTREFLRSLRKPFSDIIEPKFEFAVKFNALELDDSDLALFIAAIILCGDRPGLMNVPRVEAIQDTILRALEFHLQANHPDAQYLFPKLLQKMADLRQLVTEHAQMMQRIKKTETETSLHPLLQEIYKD

[3] = biological target: PPARγ; parameters: method as in PMID 32909075; conditions: lowest Kd among nine lipids tested in vitro; cited from earlier work
[4] = test system: Angptl4; assay: Angptl4 mRNA expression (qPCR) in 3T3-L1 preadipocytes, without and with PPAR antagonists; assay type: cell-based, murine; conditions: agonist and antagonist both 10 μM, 3T3-L1 cells
[5] = % relative to agonist control GW7647 at the highest concentration, 95% confidence intervals in parentheses
[6] = 95% confidence intervals in parentheses
[7] = % relative to agonist control GW501516 at the highest concentration, 95% confidence intervals in parentheses

Molecule `CCCCCCCCCCCCCCC(=O)O` [C15, Pentadecanoic acid] has an Emax [1, 5] of 36.8%, an EC50 [1, 6] of 9.6 µM and an Emax [2, 7] of 23.7%. It also gave an EC50 [2, 6] of 25.6 µM.
Molecule `CCC/C=C\CCCCCCCCCC(=O)O` [C15:1 cis-11, (11Z)-pentadec-11-enoic acid] has an Emax [1, 5] of 26.6%, an EC50 [1, 6] of 12.8 µM and an Emax [2, 7] of 18.9%. For the same molecule, the EC50 [2, 6] was 25.7 µM.
`CCC[C@@H]1C[C@@H]1CCCCCCCCCC(=O)O` [C15Δ1 cis-11, (11S,12R)-11,12-methylenepentadecanoic acid] gave an Emax [1, 5] of 26.3%, an EC50 [1, 6] of 14.1 µM and an Emax [2, 7] of 14.9%. The EC50 [2, 6] was 25.6 µM.
With `CCCCCCCCCCCCCCCC(=O)O` [C16, Hexadecanoic acid] the Emax [1, 5] was 52.6% and the EC50 [1, 6] was 5.43 µM.
Work on `CCCCCC/C=C\CCCCCCCC(=O)O` [C16:1 cis-9, (9Z)-hexadec-9-enoic acid] yielded an Emax [1, 5] of 59.1%, an EC50 [1, 6] of 2.13 µM and an Emax [2, 7] of 39.5%. The EC50 [2, 6] was 26.4 µM.
For `CCCCCC[C@@H]1C[C@@H]1CCCCCCCC(=O)O` [C16Δ1 cis-9, (9S,10R)-9,10-methylenehexadecanoic acid], the Emax [1, 5] was 62.3%, the EC50 [1, 6] was 12.2 µM and the Emax [2, 7] was 58.1%. For the same molecule, the EC50 [2, 6] was 22 µM.
For `CCCCCCCCCCCCCCCCC(=O)O` [C17, Heptadecanoic acid], the Emax [1, 5] was 58.9%, the EC50 [1, 6] was 5.04 µM and the Emax [2, 7] was 41.3%. For the same molecule, the EC50 [2, 6] was 22.3 µM.
For `CCC/C=C\CCCCCCCCCCCC(=O)O` [C17:1 cis-13, (13Z)-heptadec-13-enoic acid], the “Emax, maximum efficacy, PPARα” value [1, 5] was 69.86 (43, 96.7) a %, the Emax [1, 5] was 70% and the EC50 [1, 6] was 4.7 µM. It also gave an Emax [2, 7] of 30.6% and an EC50 [2, 6] of 17.8 µM.
For `CCC[C@@H]1C[C@@H]1CCCCCCCCCCCC(=O)O` [C17Δ1 cis-13, (13S,14R)-13,14-methyleneheptadecanoic acid], the “Emax, maximum efficacy, PPARα” value [1, 5] was 65.01 (52.5, 77.5) a %, the Emax [1, 5] was 65% and the EC50 [1, 6] was 4.12 µM. The Emax [2, 7] was 37.1% and the EC50 [2, 6] was 26.8 µM.
`CCCCCCCCCCCCCCCCCC(=O)O` [C18, Octadecanoic acid] gave an Emax [1, 5] of 55.9% and an EC50 [1, 6] of 6.37 µM.
`CCCCCCCC/C=C\CCCCCCCC(=O)O` [C18:1 cis-9, (9Z)-octadec-9-enoic acid] gave an EC50 [1, 6] of 0.91 µM, an Emax [1] of 52% and an EC50 [2, 6] of 18.5 µM. The Emax [2] was 51.9%.
With `CCCCCC/C=C\CCCCCCCCCC(=O)O` [C18:1 cis-11, (11Z)-octadec-11-enoic acid] the Emax [1, 5] was 45.2%, the EC50 [1, 6] was 3.5 µM and the Emax [2, 7] was 43.5%. It also gave an EC50 [2, 6] of 22 µM.
In the case of `CCCCCCCC[C@@H]1C[C@@H]1CCCCCCCC(=O)O` [C18Δ1 cis-9, (9S,10R)-9,10-methyleneoctadecanoic acid], the Emax [1, 5] is reported as 51.4%, the EC50 [1, 6] is reported as 5.23 µM and the “Emax, maximum efficacy, PPARδ” value [2, 7] is reported as 73.56 (65.9, 81.2) b %. The Emax [2, 7] was about 74% and the EC50 [2, 6] was 27.1 µM.
With `CCCCCC[C@@H]1C[C@@H]1CCCCCCCCCC(=O)O` [C18Δ1 cis-11, (11S,12R)-11,12-methyleneoctadecanoic acid] the Emax [1, 5] was 54.7%, the EC50 [1, 6] was 7.65 µM and the “Emax, maximum efficacy, PPARδ” value [2, 7] was 57.03 (52.5, 61.6) a %. For the same molecule, the Emax [2, 7] was 57%, the EC50 [2, 6] was 25.8 µM and the Kd [3] was about 100 µM.
With `O=C(NCCS(=O)(=O)c1ccc(C(F)(F)F)cn1)c1ccc(Cl)cc1` [GSK3787] the “Reduction of PPAR agonist-mediated Angptl4 expression by the antagonist” value (“Reduction” for short) [4] was about 50%.
For `CCC(=O)NC[C@H](Cc1ccc(OCCc2nc(-c3ccccc3)oc2C)cc1)N/C(C)=C\C(=O)c1ccc(C(F)(F)F)cc1` [GW6471], the “Reduction” value [4] was “did not inhibit”.
Work on `CC(C)(Sc1ccc(CCN(CCCCC2CCCCC2)C(=O)NC2CCCCC2)cc1)C(=O)O` [GW7647] yielded an Emax [1, 5] of 86.6%.
With `O=C(Nc1ccncc1)c1cc([N+](=O)[O-])ccc1Cl` [T0070907] the “Reduction” value [4] was about 50%.
